Reference: the CheMixHub drug solubility set

Assay: xn = mol fraction of the nth substance listed, in the solute-free solvent

CCC(C(C)O)n1ncn(-c2ccc(N3CCN(c4ccc(OCC5COC(Cn6cncn6)(c6ccc(F)cc6F)C5)cc4)CC3)cc2)c1=O (centres undefined) + CCOC(C)=O + CC(C)O
solubility (g/100 g solution)
Conditions	273.15 K	278.15 K	283.15 K	288.15 K	293.15 K	298.15 K	303.15 K	308.15 K	313.15 K
x2 = 0.07045	0.00869	0.0113	0.015	0.0192	0.0237	0.0294	0.0352	0.0423	0.0504
x2 = 0.1457	0.0114	0.0145	0.0186	0.023	0.0283	0.0344	0.0415	0.049	0.058
x2 = 0.2262	0.0148	0.0192	0.0245	0.0306	0.0374	0.0445	0.0524	0.0621	0.0721
x2 = 0.3126	0.0191	0.0242	0.0305	0.0373	0.0452	0.0542	0.0641	0.0753	0.0897
x2 = 0.4055	0.0249	0.0308	0.039	0.0482	0.0589	0.071	0.0837	0.0987	0.119
x2 = 0.5057	0.0321	0.0401	0.0493	0.0608	0.0728	0.0857	0.103	0.121	0.145
x2 = 0.6141	0.0354	0.0469	0.0581	0.0726	0.0862	0.101	0.118	0.14	0.164
x2 = 0.7318	0.0383	0.0499	0.0636	0.0793	0.0965	0.115	0.135	0.16	0.186
x2 = 0.8599	0.0405	0.0522	0.066	0.0819	0.101	0.12	0.142	0.166	0.193

COC(=O)C1=C(C)NC(C)=C(C(=O)OCC(C)C)C1c1ccccc1[N+](=O)[O-] (centres undefined) + CCOC(C)=O + CC(C)O
solubility (g/100 g solution)
Conditions	278.15 K	283.15 K	288.15 K	293.15 K	298.15 K	303.15 K	308.15 K	313.15 K	318.15 K
x2 = 0.07045	3.52	4.21	5.01	5.86	6.83	7.91	9.07	10.5	11.9
x2 = 0.1457	4.03	4.67	5.54	6.46	7.55	8.74	9.96	11.4	12.9
x2 = 0.2262	4.4	5.19	6.09	7.07	8.21	9.47	10.8	12.3	13.9
x2 = 0.3126	4.88	5.76	6.68	7.75	8.91	10.2	11.5	13	14.7
x2 = 0.4055	5.37	6.28	7.26	8.31	9.53	10.8	12.3	13.8	15.4
x2 = 0.5057	5.77	6.69	7.7	8.82	10.1	11.4	12.9	14.5	16.1
x2 = 0.6141	6.12	7.09	8.13	9.25	10.6	12	13.5	15.1	16.8
x2 = 0.7318	6.4	7.37	8.53	9.72	11	12.5	14.1	15.7	17.5
x2 = 0.8599	6.59	7.63	8.83	10	11.4	12.8	14.3	16	17.8

CCC(C(C)O)n1ncn(-c2ccc(N3CCN(c4ccc(OCC5COC(Cn6cncn6)(c6ccc(F)cc6F)C5)cc4)CC3)cc2)c1=O (centres undefined) + CCOC(C)=O + CCO
solubility (g/100 g solution)
Conditions	273.15 K	278.15 K	283.15 K	288.15 K	293.15 K	298.15 K	303.15 K	308.15 K	313.15 K
x2 = 0.05491	0.0447	0.057	0.0728	0.0894	0.109	0.13	0.151	0.174	0.201
x2 = 0.1156	0.0657	0.084	0.104	0.125	0.148	0.173	0.2	0.229	0.264
x2 = 0.1831	0.106	0.131	0.158	0.188	0.217	0.251	0.289	0.33	0.38
x2 = 0.2585	0.144	0.174	0.207	0.243	0.28	0.323	0.37	0.422	0.484
x2 = 0.3434	0.162	0.191	0.227	0.265	0.308	0.358	0.417	0.486	0.561
x2 = 0.4396	0.142	0.171	0.202	0.237	0.27	0.311	0.359	0.412	0.48
x2 = 0.5496	0.112	0.137	0.163	0.192	0.221	0.253	0.285	0.321	0.36
x2 = 0.6765	0.0924	0.114	0.136	0.158	0.182	0.206	0.232	0.259	0.294
x2 = 0.8247	0.0667	0.0831	0.101	0.119	0.138	0.158	0.182	0.21	0.24

COC(=O)C1=C(C)NC(C)=C(C(=O)OCC(C)C)C1c1ccccc1[N+](=O)[O-] (centres undefined) + CCOC(C)=O + CCO
solubility (g/100 g solution)
Conditions	278.15 K	283.15 K	288.15 K	293.15 K	298.15 K	303.15 K	308.15 K	313.15 K	318.15 K
x2 = 0.05491	3.09	3.87	4.65	5.7	6.64	8.03	9.37	11.1	12.9
x2 = 0.1156	3.98	4.79	5.78	6.75	8.13	9.47	11	12.8	14.5
x2 = 0.1831	4.91	5.89	6.97	8.15	9.36	10.8	12.3	14	15.7
x2 = 0.2585	5.53	6.46	7.49	8.75	10	11.5	13	14.7	16.6
x2 = 0.3434	5.99	6.94	8.09	9.33	10.6	12	13.7	15.3	17.2
x2 = 0.4396	6.34	7.36	8.52	9.66	11.2	12.6	14.2	15.9	17.7
x2 = 0.5496	6.6	7.63	8.77	10.1	11.4	12.8	14.4	16.1	18
x2 = 0.6765	6.76	7.78	8.91	10.2	11.5	13.1	14.7	16.3	18.2
x2 = 0.8247	6.8	7.86	9.01	10.2	11.6	13.1	14.6	16.3	18.2
